The record followed here is patent publication US8921373B2, “Compounds having TRPV1 antagonistic activity and uses thereof” (Shionogi & Co., Ltd., priority 2010, dated 2014).

The nature of data set [1]: Measurement of body temperature increase (rectal body temperature). Conditions: Crl/SD rats, oral; for Body temperature increase: 1 mg/mL at 10 mL/kg; for Body temperature increase ΔTb: 1 mg/mL in 0.5% methylcellulose at 10 mL/kg, difference from vehicle group average. Type of data set: in vivo, rat. The procedure:
Test Animals: Selection of rats (Crl/SD rats, 7 weeks, male) for this study was based on rectal body temperature measured during the morning of the day of dosing. In addition, animals selected for this study were acclimated to both the rectal measurement procedure and to being handled and dosed to minimize spontaneous, stress-induced, increases in body temperature. The study was conducted in the animal care laboratories where the room temperature and humidity were kept. The rats were free to move and food and water during the study. Each rat was numbered with color line on the tail, housed in each cage and permitted the normal range of movement. Immediately before each body temperature was measured, they transferred to a single cage at each measurement. To reduce stress which affected the body temperature, the rats were covered with towels at the measurement. The thermistor probe was then carefully inserted into the rectum of each rat and left in place until the value on the digital display had stabilized.
Assays: On the day before dosing, rectal body temperatures were measured at 9:00, 10:00, 11:00, 12:30, 13:30, 14:30 and 15:30 to familiarize the animals with the measurement procedure prior to administration of the test or control treatments. The rats were also dosed by oral gavage without vehicle at 12:30 to acclimate and familiarized the animals with the handling and dosing procedure.
On the day of dosing, only rats whose rectal body temperatures were within the range of 37.0° C. to 37.7° C. were selected for this study. Rectal body temperatures were measured at 9:00, 10:00 and 11:00. Rats whose rectal body temperatures were over 37.9° C. at 10:00, and were outside the range of 37.0° C. to 37.7° C. at 11:00 were excluded from the study. The selected rats were divided to several groups based on their rectal body temperatures at 11:00. Rectal body temperatures of the selected rats were measured again at 12:30, and any rats whose rectal body temperature was 38.0° C. or greater were excluded from the study.
Following the group assignment, test compounds or vehicle was administrated to the rats. Each test compound was dissolved in 0.5% methylcellurose and the final concentration of the compound was adjusted to 1 mg/mL. Test compound was orally administrated in a volume 10 mL/kg once. 10 mL/kg of vehicle (0.5% methylcellurose) was administered to the vehicle group. The rectal body temperatures were measured 0.5, 1 and 2 hrs after the administration. The study was conducted in the animal care laboratories where the room temperature and humidity were kept.
Body temperature increase (ΔTb) was calculated from the difference from an average of the vehicle group at each time point.

The target of data set [2] is T1, human recombinant TRPV1 (Homo sapiens (Human), UniProt Q8NER1). The data set can be described thus: TRPV1 Capsaicin-Based Assay (Protocol 2, TRPV1/CHO cells, Fluo-4, FLIPR). Type of data set: cell-based. Conditions: TRPV1/CHO cells, capsaicin 100 nM final; read-out: IC50 value by the Capsaicin-Based Assay. The procedure: For Protocol 2, a Chinese Hamster Ovary cell line (CHO) that has been engineered to constitutively express human recombinant TRPV1 was used (TRPV1/CHO cells). The TRPV1/CHO cell line was generated as described below.
One day prior to assay, TRPV1/CHO cells were seeded in 96-well clear-bottom black plates (20,000 cells/well) in growth media. On the day of the experiment, the cells were washed with 0.2 mL 1× Hank's Balanced Salt Solution (Life Technologies) containing 1.6 mM CaCl2 and 20 mM HEPES, pH 7.4 (“wash buffer”). Subsequently, the cells were loaded by incubation in 0.1 mL of wash buffer containing Fluo-4 at 3 μM final concentration. After 1 hour, the cells were washed twice with 0.2 mL wash buffer and resuspended in 0.1 mL wash buffer. The plates were then transferred to a Fluorescence Imaging Plate Reader (Molecular Devices). Fluorescence intensity was monitored for 15 seconds to establish a baseline. Subsequently, test compounds diluted in assay buffer (1× Hank's Balanced Salt Solution containing 1 mM CaCl2 and 20 mM HEPES, pH 7.4) containing 1% DMSO were added to the cell plate and fluorescence was monitored for 2 minutes. […] Human TRPV1 was then activated by the addition of 50 μL capsaicin (100 nM final concentration) and plates incubated for an additional 3 min. Data were collected over the entire time course and analyzed using Excel and the curve-fitting formula GraphPad Prism.

For data set [3], the target named is T1, human recombinant TRPV1. The data set can be described thus: TRPV1 pH-Based Assay (Protocol 2, Ca2+ response in TRPV1/CHO cells, Fura-2). It counts as cell-based. To be noted: TRPV1/CHO cells, pH 5.0-5.1; read-out: IC50 value by the pH-Based Assay. The method in brief: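 CHO cells stably expressing human TRPV1, Fura-2 loaded, given compound (1% DMSO in 10× stock) before acid challenge to final pH 5.0-5.1 (3.2 or 3.3 mM H2SO4). 340/380 nm ratio recorded at 0.5 Hz; maximal ratio after agonist addition versus 16-point baseline used as response.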

pIC50: −log10 of the molar value.

One may read the pIC50 as the negative decadic logarithm of the IC50, by convention in mol/L.

T1 sequence (Q8NER1 whole entry): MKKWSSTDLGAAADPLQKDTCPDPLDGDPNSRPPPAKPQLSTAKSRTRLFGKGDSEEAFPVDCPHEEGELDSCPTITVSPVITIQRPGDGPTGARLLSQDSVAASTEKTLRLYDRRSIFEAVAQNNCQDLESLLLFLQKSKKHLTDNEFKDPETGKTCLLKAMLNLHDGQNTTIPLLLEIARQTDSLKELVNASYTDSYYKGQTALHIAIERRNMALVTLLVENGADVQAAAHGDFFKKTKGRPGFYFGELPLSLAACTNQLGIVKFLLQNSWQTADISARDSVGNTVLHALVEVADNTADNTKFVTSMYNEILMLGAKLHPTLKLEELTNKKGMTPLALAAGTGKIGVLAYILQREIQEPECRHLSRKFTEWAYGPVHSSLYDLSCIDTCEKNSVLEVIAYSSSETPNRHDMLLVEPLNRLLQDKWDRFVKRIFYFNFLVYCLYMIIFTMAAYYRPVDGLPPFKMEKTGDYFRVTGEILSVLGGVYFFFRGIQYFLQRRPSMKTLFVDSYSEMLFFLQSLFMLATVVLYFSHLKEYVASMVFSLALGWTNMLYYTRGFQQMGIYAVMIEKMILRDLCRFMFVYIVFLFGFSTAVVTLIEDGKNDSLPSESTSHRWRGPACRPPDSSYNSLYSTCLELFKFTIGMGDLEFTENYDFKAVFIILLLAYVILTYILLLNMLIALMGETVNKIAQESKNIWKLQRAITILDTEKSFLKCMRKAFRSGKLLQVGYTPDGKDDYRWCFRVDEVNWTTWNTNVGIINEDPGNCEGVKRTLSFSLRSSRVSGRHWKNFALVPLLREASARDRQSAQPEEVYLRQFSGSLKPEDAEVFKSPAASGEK

Consider `Cc1cc(NC(=O)N2CC=C(c3ncc(C[C@H](O)CO)cc3C)CC2)ccc1OC(F)(F)F` [ACK, (S)-4-(5-(2,3-dihydroxypropyl)-3-methylpyridin-2-yl)-N-(3-methyl-4-(trifluoromethoxy)phenyl)-5,6-dihydropyridine-1(2H)-carboxamide], for which the Body temperature increase result in data set [1] was “less than 0.5 °C”. On to `Cc1ccc2nc(NC(=O)N3CCN(c4ncc(C[C@H](O)CO)cc4Cl)CC3)sc2c1` [ADX], for which the pIC50 on human recombinant TRPV1 [2] was at least 7.30. For the same compound, the Body temperature increase result in data set [1] was “less than 0.5 °C”. Take `C[C@@H]1CN(c2ncc(C[C@@H](O)CO)cc2F)CCN1C(=O)Nc1nc2ccc(Cl)cc2s1` [ADK, (R)-N-(6-chlorobenzo[d]thiazol-2-yl)-4-{5-[(R)-2,3-dihydroxypropyl]-3-fluoropyridin-2-yl}-2-methylpiperazine-1-carboxamide]: the negative logarithm of the IC50 (pIC50) on human recombinant TRPV1 [3] is at least 7.30. Also, the Body temperature increase result in data set [1] was “less than 0.5 °C”. Consider `O=C(Nc1nc2ccc(F)cc2s1)N1CCN(c2ncc(C[C@@H](O)CO)cc2Cl)CC1` [ACV, (R)-4-(3-chloro-5-(2,3-dihydroxypropyl)pyridin-2-yl)-N-(6-fluorobenzo[d]thiazol-2-yl)piperazine-1-carboxamide], for which the negative-log IC50 (pIC50) on human recombinant TRPV1 [3] and at human recombinant TRPV1 [2] was at least 7.30 each time. For the same compound, in data set [1], the Body temperature increase result is “less than 0.5 °C”. In the case of `O=C(Nc1nc2ccc(Cl)cc2s1)N1CCN(c2ncc(C[C@H](O)CO)cc2F)CC1` [ADE, (S)-N-(6-chlorobenzo[d]thiazol-2-yl)-4-(5-(2,3-dihydroxypropyl)-3-fluoropyridin-2-yl)piperazine-1-carboxamide], the pIC50 on human recombinant TRPV1 [3] and at human recombinant TRPV1 [2] was at least 7.30 throughout. Further, in data set [1], the Body temperature increase entry is “less than 0.5 °C”.

For `COc1cc(NC(=O)N2CC=C(c3ncc(C[C@@H](O)CO)cc3Cl)CC2)ccc1C(F)(F)F` [AAM, (R)-4-(3-Chloro-5-(2,3-dihydroxypropyl)pyridin-2-yl)-N-(3-methoxy-4-(trifluoromethyl)phenyl)-5,6-dihydropyridine-1(2H)-carboxamide], the pIC50 at human recombinant TRPV1 [3] was at least 7.30. Further, the Body temperature increase result in data set [1] was “less than 0.5 °C”. Take `C[C@H]1CN(c2ncc(C[C@H](O)CO)cc2Cl)CCN1C(=O)Nc1nc2ccc(Cl)cc2s1` [AEG]: the pIC50 on human recombinant TRPV1 [2] is at least 7.30. For the same compound, the Body temperature increase entry in data set [1] was “less than 0.5 °C”. As to `O=C(Nc1ccc(C(F)(F)F)c(Cl)c1)N1CC=C(c2ncc(C[C@@H](O)CO)cc2Cl)CC1` [AAK, (R)-N-(3-Chloro-4-(trifluoromethyl)phenyl)-4-(3-chloro-5-(2,3-dihydroxypropyl)pyridin-2-yl)-5,6-dihydropyridine-1(2H)-carboxamide], on human recombinant TRPV1 [3], the pIC50 was at least 7.30. Besides, the Body temperature increase entry in data set [1] was “less than 0.5 °C”. For the compound `Cc1cc(NC(=O)N2CCC(F)(c3ncc(C[C@@H](O)CO)cc3F)CC2)ccc1OC(F)(F)F` [ACP, (R)-4-(5-(2,3-dihydroxypropyl)-3-fluoropyridin-2-yl)-4-fluoro-N-(3-methyl-4-(trifluoromethoxy)phenyl)piperidine-1-carboxamide], the negative logarithm of the IC50 (pIC50) on human recombinant TRPV1 [3] and on human recombinant TRPV1 [2] was at least 7.30 each time. Besides, the “Body temperature increase ΔTb” value in data set [1] turned out to be 0.16 °C. Consider `Cc1cc2nc(NC(=O)N3CCN(c4ncc(C[C@@H](O)CO)cc4F)CC3)sc2cc1C` [ACZ, (R)-4-(5-(2,3-dihydroxypropyl)-3-fluoropyridin-2-yl)-N-(5,6-dimethylbenzo[d]thiazol-2-yl)piperazine-1-carboxamide], for which the pIC50 on human recombinant TRPV1 [3] is at least 7.30. Besides, the “Body temperature increase ΔTb” value in data set [1] worked out at 0.24 °C. `O=C(Nc1nc2ccc(F)cc2s1)N1CCN(c2ncc(C[C@H](O)CO)cc2F)CC1` [ADD, (S)-4-(5-(2,3-dihydroxypropyl)-3-fluoropyridin-2-yl)-N-(6-fluorobenzo[d]-thiazol-2-yl)piperazine-1-carboxamide]: on human recombinant TRPV1 [3], the pIC50 is at least 7.30. Moreover, the Body temperature increase entry in data set [1] is “less than 0.5 °C”. Turning to `O=C(Nc1nc2ccc(F)cc2s1)N1CCC(F)(c2ncc(C[C@@H](O)CO)cc2Cl)CC1` [AEF, (R)-4-(3-chloro-5-(2,3-dihydroxypropyl)pyridin-2-yl)-4-fluoro-N-(6-fluorobenzo[d]thiazol-2-yl)piperidine-1-carboxamide], the Body temperature increase result in data set [1] is “less than 0.5 °C”. Consider `Cc1cc(NC(=O)N2CC=C(c3ncc(C[C@@H](O)CO)cc3C)CC2)ccc1C(F)(F)F` [ACD, (R)-4-(5-(2,3-dihydroxypropyl)-3-methylpyridin-2-yl)-N-(3-methyl-4-(trifluoromethyl)phenyl)-5,6-dihydropyridine-1(2H)-carboxamide], for which, in data set [1], the Body temperature increase result was “less than 0.5 °C”. With `Cc1cc(NC(=O)N2CC=C(c3ncc(C[C@@H](O)CO)cc3F)CC2)ccc1OC(F)(F)F` [ACB, (R)-5-(2,3-dihydroxypropyl)-3-fluoro-N-(3-methyl-4-(trifluoromethoxy)phenyl)-5′,6-dihydro-[2,4′-bipyridine]-1′(2′H)-carboxamide], the Body temperature increase result in data set [1] was “less than 0.5 °C”. With `Cc1cc(NC(=O)N2CC=C(c3ncc(C[C@H](O)CO)cc3F)CC2)ccc1OC(F)(F)F` [ABZ, (S)-5-(2,3-dihydroxypropyl)-3-fluoro-N-(3-methyl-4-(trifluoromethoxy)-phenyl)-5′,6′-dihydro-[2,4′-bipyridine]-1′(2′H)-carboxamide], the pIC50 on human recombinant TRPV1 [3] was at least 7.30. For the same compound, the “Body temperature increase ΔTb” value in data set [1] amounted to 0.03 °C. With `Cc1cc(NC(=O)N2CC=C(c3ncc(C[C@@H](O)CO)cc3Cl)CC2)ccc1C(F)(F)F` [AAW, (R)-4-(3-Chloro-5-(2,3-dihydroxypropyl)pyridin-2-yl)-N-(3-methyl-4-(trifluoromethyl)phenyl)-5,6-dihydropyridine-1(2H)-carboxamide], on human recombinant TRPV1 [3], the pIC50 is at least 7.30. The Body temperature increase entry in data set [1] is “less than 0.5 °C”. For `O=C(Nc1ccc(C(F)(F)F)c(Cl)c1)N1CC=C(c2ncc(C[C@H](O)CO)cc2Cl)CC1` [AAF, (S)-N-(3-Chloro-4-(trifluoromethyl)phenyl)-4-(3-chloro-5-(2,3-dihydroxypropyl)pyridin-2-yl)-5,6-dihydropyridine-1(2H)-carboxamide], at human recombinant TRPV1 [3], the pIC50 is at least 7.30. Further, in data set [1], the Body temperature increase result was “less than 0.5 °C”. For `Cc1cc(NC(=O)N2CC=C(c3ncc(C[C@@H](O)CO)cc3F)CC2)ccc1C(F)(F)F` [ACA, (R)-5-(2,3-dihydroxypropyl)-3-fluoro-N-(3-methyl-4-(trifluoro-methyl)phenyl)-5′,6′-dihydro-[2,4′-bipyridine]-1′(2′H)-carboxamide], at human recombinant TRPV1 [3], the pIC50 is at least 7.30. Besides, the Body temperature increase entry in data set [1] was “less than 0.5 °C”. The like results for `O=C(Nc1nc2ccccc2s1)N1CCN(c2ncc(C[C@@H](O)CO)cc2Cl)CC1` [ADV] were, in that order, at least 7.30 and “less than 0.5 °C”. Take `Cc1cc(NC(=O)N2CC=C(c3ncc(C[C@H](O)CO)cc3C)CC2)ccc1C(F)(F)F` [ACL, (S)-4-(5-(2,3-dihydroxypropyl)-3-methylpyridin-2-yl)-N-(3-methyl-4-(trifluoromethyl)phenyl)-5,6-dihydropyridine-1(2H)-carboxamide]: the Body temperature increase entry in data set [1] is “less than 0.5 °C”.
